Data reported in patent US20240383870A1, “HETEROCYCLIC ALDEHYDE TRAPPING COMPOUNDS AND USES THEREOF” (Aldeyra Therapeutics, Inc., priority 2021, published 2024).

Tests used:
Type in all cases: in vivo
[1] = system: IL-9; test: Acute LPS-induced sepsis in C57BL/6 mice: IL-9 cytokine detection assay; conditions: 125 mpk PO; LPS-challenged mice, plasma at 6.5 h; unpaired t-test vs vehicle
Excerpt: FIG. 13 is a graph showing the results of an IL-9 cytokine detection assay in samples collected from mouse subjects after administration of compounds of the present disclosure.
(§1) The primary objective of this study was to collect plasma samples of lipopolysaccharide (LPS) challenged C57BL/6 mice after dose of test compounds to provide a cytokine profile as impacted by prophylactic treatments. This study models acute sepsis, which is a systemic inflammatory syndrome initiated by Gram-negative and Gram-positive bacteria and fungi which infect the lungs, abdomen, bloodstream, and renal or genitourinary tracts. Sepsis patients ultimately die of multiorgan failure which is caused by extensive tissue hypo-oxygenation due to ongoing microvascular leakage, disseminated intravascular coagulation, compromised energy production, and metabolic alterations. Sepsis is characterized by an early systemic inflammatory response phase featuring symptoms, such as tachycardia, fever, hyperventilation, and activation of the complement and coagulation cascades. However, it is now appreciated that a compensatory anti-inflammatory response phase follows, characterized by neuroendocrine-mediated immunosuppression. Since these processes are the result of interaction between cells of inflammation and organs, investigation of the treatment of this syndrome requires the use of intact animal models. The use of ten mice per group allows useful statistical modelling of the results.
For the data shown in Table 2A, 103 mice (female, 18-22 gram, C57BL/6) were purchased from ENVIGO. The mice were housed in 20 cages of 5 mice per cage with 1 cage of 3 mice as extra. The cages had filter tops and autoclaved bedding, and the animals were placed in quarantine with daily inspection. The treatment groups are detailed in Table 2A below. 10 mice were included in each group. The mice were dosed by oral gavage (PO) at 10 ml/kg as per the table below. MC=methyl cellulose. […]
(§2) A 32-plex cytokine panel was obtained from Eve Technologies. Each cytokine was assessed based against a 7 point curve range in duplicate. […]

[2] = system: KC; test: Acute LPS-induced sepsis in C57BL/6 mice: KC cytokine detection assay; conditions: LPS-challenged mice, plasma at 6.5 h, unpaired t-test vs vehicle
Excerpt: FIG. 20 is a graph showing the results of a KC cytokine detection assay in samples collected from mouse subjects after administration of compounds of the present disclosure.
as §1
(§3) For the data shown in Table 2A, 103 mice (female, 18-22 gram, C57BL/6) were purchased from ENVIGO. The mice were housed in 20 cages of 5 mice per cage with 1 cage of 3 mice as extra. The cages had filter tops and autoclaved bedding, and the animals were placed in quarantine with daily inspection. The treatment groups are detailed in Table 2A below. 10 mice were included in each group. The mice were dosed by oral gavage (PO) at 10 ml/kg as per the table below. MC=methyl cellulose.
(§4) For the data shown in Table 2B, 185 mice (female, 18-22 gram, C57BL/6) were purchased from ENVIGO. The mice were housed in 37 cages of 5 mice per cage. The cages had filter tops and autoclaved bedding, and the animals were placed in quarantine with daily inspection. The treatment groups are detailed in Table 2B below. 10 mice were included in each group. The mice were dosed by oral gavage (P0) at 10 ml/kg as per the table below. MC=methyl cellulose.
(§5) At T=0 h, the mice were dosed with one of the test compounds as described in the above table.
(§6) At T=0.5 h, the mice were injected IP with 1.5 mg/kg […] (Sigma).
(§7) At T=6.5 h, all mice were anesthetized and exsanguinated into pre-chilled EDTA-treated tubes. The blood was processed to plasma which was stored in labeled 0.5 polypropylene snap-cap tubes (0.5 mL Eppendorf Safe-Lock Tubes (Fisher Scientific) at −80° C.
(§8) Preparation of vehicle: 1.0 gram of methyl cellulose (Sigma) was dissolved in 200 mL of water (USP purified) to make a solution of 0.5% methyl cellulose in water. Preparation of LPS solution: 6 mg of LPS (from Escherichia Coli 055:B5, Cat #L2880, Sigma Lot #057m4013) was dissolved in 20 ml of saline to give a LPS solution of 0.3 mg/ml. All mice were injected with 5 ml/kg (1.5 mg/kg) at the scheduled time by intraperitoneal injection.
(§9) A 32-plex cytokine panel was obtained from Eve Technologies. Each cytokine was assessed based against a 7 point curve range in duplicate. The average of the two replicate analyses was used for statistics. Unpaired t-tests were performed using Excel™ contrasting vehicle against each treatment group. One star indicates P<0.05. Two stars indicates P<0.01. Three stars indicates P<0.001. Four stars indicates P<0.0001. Most, but not all, statistically significant results are indicated with star(s).

[3] = system: IL-10; test: Acute LPS-induced sepsis in C57BL/6 mice: IL-10 cytokine detection assay; conditions: LPS-challenged mice, plasma at 6.5 h, unpaired t-test vs vehicle
[4] = system: IL-12(p70); test: Acute LPS-induced sepsis in C57BL/6 mice: IL-12(p70) cytokine detection assay; conditions: LPS-challenged mice, plasma at 6.5 h, unpaired t-test vs vehicle
Excerpt: FIG. 16 is a graph showing the results of an IL-12(p70) cytokine detection assay in samples collected from mouse subjects after administration of compounds of the present disclosure.
as §1
(§10) For the data shown in Table 2A, 103 mice (female, 18-22 gram, C57BL/6) were purchased from ENVIGO. The mice were housed in 20 cages of 5 mice per cage with 1 cage of 3 mice as extra. The cages had filter tops and autoclaved bedding, and the animals were placed in quarantine with daily inspection. The treatment groups are detailed in Table 2A below. 10 mice were included in each group. […] MC=methyl cellulose.
as §4, §5, §6, §7, §8
A 32-plex cytokine panel was obtained from Eve Technologies. Each cytokine was assessed based against a 7 point curve range in duplicate. The average of the two replicate analyses was used for statistics. Unpaired t-tests were performed using Excel™ contrasting vehicle against each treatment group. One star indicates P<0.05. […]

[5] = system: IL-13; test: Acute LPS-induced sepsis in C57BL/6 mice: IL-13 cytokine detection assay; conditions: LPS-challenged mice, plasma at 6.5 h, unpaired t-test vs vehicle
Excerpt: FIG. 17 is a graph showing the results of an IL-13 cytokine detection assay in samples collected from mouse subjects after administration of compounds of the present disclosure.
as §1, §3, §4, §5, §6, §7, §8
A 32-plex cytokine panel was obtained from Eve Technologies. Each cytokine was assessed based against a 7 point curve range in duplicate. The average of the two replicate analyses was used for statistics. […]

[6] = system: MCP-1(CCL2); test: Acute LPS-induced sepsis in C57BL/6 mice: MCP-1(CCL2) cytokine detection assay; conditions: 200 mpk PO; LPS-challenged mice, plasma at 6.5 h; unpaired t-test vs vehicle
[7] = system: IFNγ; test: Acute LPS-induced sepsis in C57BL/6 mice: IFNγ cytokine detection assay; conditions: 75 mpk PO; LPS-challenged mice, plasma at 6.5 h; unpaired t-test vs vehicle
[8] = system: IL-17; test: Acute LPS-induced sepsis in C57BL/6 mice: IL-17 cytokine detection assay; conditions: 75 mpk PO; LPS-challenged mice, plasma at 6.5 h; unpaired t-test vs vehicle
Excerpt: FIG. 19 is a graph showing the results of an IL-17 cytokine detection assay in samples collected from mouse subjects after administration of compounds of the present disclosure.
as §1, §10, §4, §5, §6
(§11) At T=6.5 h, all mice were anesthetized and exsanguinated into pre-chilled EDTA-treated tubes. […]
as §2

[9] = system: leukemia inhibitory factor (LIF); test: Acute LPS-induced sepsis in C57BL/6 mice: leukemia inhibitory factor (LIF) cytokine detection assay; conditions: 75 mpk PO; LPS-challenged mice, plasma at 6.5 h; unpaired t-test vs vehicle
Excerpt: FIG. 21 is a graph showing the results of a leukemia inhibitory factor (LIF) cytokine detection assay in samples collected from mouse subjects after administration of compounds of the present disclosure. LIF is an interleukin 6 class cytokine that affects cell growth by inhibiting differentiation.
as §1, §3, §4, §5, §6, §7, §8, §2

[10] = system: M-CSF (CSF1); test: Acute LPS-induced sepsis in C57BL/6 mice: M-CSF (CSF1) cytokine detection assay; conditions: 75 mpk PO; LPS-challenged mice, plasma at 6.5 h; unpaired t-test vs vehicle
Excerpt: FIG. 24 is a graph showing the results of an M-CSF (CSF1) cytokine detection assay in samples collected from mouse subjects after administration of compounds of the present disclosure. M-CSF causes hematopoietic stem cells to differentiate into macrophages.
as §1, §3, §4, §5, §6, §7, §8, §9

[11] = system: IL-3; test: Acute LPS-induced sepsis in C57BL/6 mice: IL-3 cytokine detection assay; conditions: 75 mpk PO; LPS-challenged mice, plasma at 6.5 h; unpaired t-test vs vehicle
[12] = system: MIP2(CXCL2); test: Acute LPS-induced sepsis in C57BL/6 mice: MIP2(CXCL2) cytokine detection assay; conditions: 75 mpk PO; LPS-challenged mice, plasma at 6.5 h; unpaired t-test vs vehicle
Excerpt: FIG. 27 is a graph showing the results of a MIP2(CXCL2) cytokine detection assay in samples collected from mouse subjects after administration of compounds of the present disclosure.
as §1, §10, §4, §5, §6, §11, §2

Structure (SMILES): CC(C)(O)c1cc2c(cc1N)OCCO2 [Compound I-26, 2-(7-Amino-2,3-dihydrobenzo[b] [1,4]dioxin-6-yl) propan-2-ol]
- IL-9: significant cytokine change vs. vehicle [1]: * (One star indicates P<0.05)

Structure (SMILES): CC(C)(O)c1cc(F)c(F)cc1N [Compound I-27, 2-(2-Amino-4,5-difluorophenyl) propan-2-ol]
- KC: significant cytokine change vs. vehicle ([2]; 200 mpk PO): * (One star indicates P<0.05)

Structure (SMILES): CC(C)(O)c1cc(Cl)c(Cl)cc1N [Compound I-28, 2-(2-Amino-4,5-dichlorophenyl) propan-2-ol]
- IL-10: significant cytokine change vs. vehicle ([3]; 200 mpk PO): * (One star indicates P<0.05)
- IL-12 (p70): significant cytokine change vs. vehicle ([4]; 200 mpk PO): * (One star indicates P<0.05)
- IL-13: significant cytokine change vs. vehicle ([5]; 200 mpk PO): * (One star indicates P<0.05)
- KC: significant cytokine change vs. vehicle ([2]; 200 mpk PO): *** (Three stars indicates P<0.001)
- MCP-1: significant cytokine change vs. vehicle [6]: * (One star indicates P<0.05)

Structure (SMILES): Cc1cnc(C(C)(C)O)c(N)c1 [Compound I-32, 2-(3-Amino-5-methylpyridin-2-yl) propan-2-ol]
- IFNy: significant cytokine change vs. vehicle [7]: **** (Four stars indicates P<0.0001)
- IL-10: significant cytokine change vs. vehicle ([3]; 75 mpk PO): * (One star indicates P<0.05)
- IL-12 (p70): significant cytokine change vs. vehicle ([4]; 75 mpk PO): * (One star indicates P<0.05)
- IL-13: significant cytokine change vs. vehicle ([5]; 75 mpk PO): *** (Three stars indicates P<0.001)
- IL-17: significant cytokine change vs. vehicle [8]: * (One star indicates P<0.05)
- LIF: significant cytokine change vs. vehicle [9]: **** (Four stars indicates P<0.0001)
- M-CSF: significant cytokine change vs. vehicle [10]: **** (Four stars indicates P<0.0001)

Structure (SMILES): CC(O)(c1ccc(C(F)(F)F)cc1N)C(F)(F)F (centres unmarked) [Compound I-33, 2-(2-Amino-4-(trifluoromethyl)phenyl)-1,1,1-trifluoropropan-2-ol]
- IL-3: significant cytokine change vs. vehicle [11]: ** (Two stars indicates P<0.01)
- IL-12 (p70): significant cytokine change vs. vehicle ([4]; 75 mpk PO): * (One star indicates P<0.05)
- IL-13: significant cytokine change vs. vehicle ([5]; 75 mpk PO): ** (Two stars indicates P<0.01)
- KC: significant cytokine change vs. vehicle ([2]; 75 mpk PO): ** (Two stars indicates P<0.01)
- LIF: significant cytokine change vs. vehicle [9]: **** (Four stars indicates P<0.0001)
- MIP-2: significant cytokine change vs. vehicle [12]: ** (Two stars indicates P<0.01)
